Measured values taken from patent US10231954B2, “Neurodegenerative therapies” (LYTIX BIOPHARMA AS, priority 2014, dated 2019).
Like-named read-outs stand apart in the source and are kept apart here.

Tests used:
Assay type in all cases: biochemical
ASK1 = molecular target: T1, ASK1 (Homo sapiens, UniProt Q99683); assay: Kinase profiling ASK1; conditions: for remaining activity at 100 µM: read-out: residual kinase activity, ASK1
T1 sequence (Q99683 1-1374): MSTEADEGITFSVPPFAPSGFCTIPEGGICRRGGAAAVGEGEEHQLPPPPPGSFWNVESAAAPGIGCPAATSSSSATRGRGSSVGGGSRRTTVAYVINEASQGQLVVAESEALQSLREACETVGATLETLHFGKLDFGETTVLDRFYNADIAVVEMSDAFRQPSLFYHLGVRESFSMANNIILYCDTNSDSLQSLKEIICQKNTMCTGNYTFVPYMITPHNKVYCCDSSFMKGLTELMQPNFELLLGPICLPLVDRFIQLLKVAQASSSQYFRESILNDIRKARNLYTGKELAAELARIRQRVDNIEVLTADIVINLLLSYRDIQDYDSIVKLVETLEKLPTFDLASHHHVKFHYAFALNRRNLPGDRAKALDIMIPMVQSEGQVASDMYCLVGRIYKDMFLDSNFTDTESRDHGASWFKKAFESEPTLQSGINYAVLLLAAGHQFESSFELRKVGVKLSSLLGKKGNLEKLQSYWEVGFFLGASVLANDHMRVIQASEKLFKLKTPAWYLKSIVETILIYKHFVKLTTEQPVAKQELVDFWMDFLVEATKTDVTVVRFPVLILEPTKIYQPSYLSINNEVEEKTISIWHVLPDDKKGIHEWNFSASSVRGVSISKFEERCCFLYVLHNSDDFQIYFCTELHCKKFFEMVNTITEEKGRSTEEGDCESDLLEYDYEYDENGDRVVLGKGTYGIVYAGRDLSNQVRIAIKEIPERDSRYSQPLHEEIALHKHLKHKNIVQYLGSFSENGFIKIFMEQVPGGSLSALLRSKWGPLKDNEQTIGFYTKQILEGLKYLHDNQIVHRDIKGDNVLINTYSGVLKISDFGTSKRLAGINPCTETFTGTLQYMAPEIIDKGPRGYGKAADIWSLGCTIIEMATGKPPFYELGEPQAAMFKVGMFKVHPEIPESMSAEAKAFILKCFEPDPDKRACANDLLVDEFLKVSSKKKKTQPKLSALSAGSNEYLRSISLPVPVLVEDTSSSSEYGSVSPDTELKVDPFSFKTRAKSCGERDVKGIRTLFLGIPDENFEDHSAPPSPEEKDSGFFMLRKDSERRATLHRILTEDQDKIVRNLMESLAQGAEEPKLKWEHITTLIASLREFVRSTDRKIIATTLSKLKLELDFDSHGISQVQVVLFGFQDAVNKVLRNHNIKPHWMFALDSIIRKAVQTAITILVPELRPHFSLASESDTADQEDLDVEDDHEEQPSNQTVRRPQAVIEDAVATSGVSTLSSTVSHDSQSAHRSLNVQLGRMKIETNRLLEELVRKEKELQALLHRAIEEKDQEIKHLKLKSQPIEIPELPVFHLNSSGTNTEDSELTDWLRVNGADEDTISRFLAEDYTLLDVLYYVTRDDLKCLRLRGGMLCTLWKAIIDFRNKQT
Description: (§1) Any value less that 25 is considered to be highly significant inhibition.

EPH-B4 = molecular target: T2, EPH-B4 (Homo sapiens, UniProt P54760); assay: Kinase profiling EPH-B4; conditions: for remaining activity at 100 µM: read-out: residual kinase activity, EPH-B4
T2 sequence (P54760 16-987): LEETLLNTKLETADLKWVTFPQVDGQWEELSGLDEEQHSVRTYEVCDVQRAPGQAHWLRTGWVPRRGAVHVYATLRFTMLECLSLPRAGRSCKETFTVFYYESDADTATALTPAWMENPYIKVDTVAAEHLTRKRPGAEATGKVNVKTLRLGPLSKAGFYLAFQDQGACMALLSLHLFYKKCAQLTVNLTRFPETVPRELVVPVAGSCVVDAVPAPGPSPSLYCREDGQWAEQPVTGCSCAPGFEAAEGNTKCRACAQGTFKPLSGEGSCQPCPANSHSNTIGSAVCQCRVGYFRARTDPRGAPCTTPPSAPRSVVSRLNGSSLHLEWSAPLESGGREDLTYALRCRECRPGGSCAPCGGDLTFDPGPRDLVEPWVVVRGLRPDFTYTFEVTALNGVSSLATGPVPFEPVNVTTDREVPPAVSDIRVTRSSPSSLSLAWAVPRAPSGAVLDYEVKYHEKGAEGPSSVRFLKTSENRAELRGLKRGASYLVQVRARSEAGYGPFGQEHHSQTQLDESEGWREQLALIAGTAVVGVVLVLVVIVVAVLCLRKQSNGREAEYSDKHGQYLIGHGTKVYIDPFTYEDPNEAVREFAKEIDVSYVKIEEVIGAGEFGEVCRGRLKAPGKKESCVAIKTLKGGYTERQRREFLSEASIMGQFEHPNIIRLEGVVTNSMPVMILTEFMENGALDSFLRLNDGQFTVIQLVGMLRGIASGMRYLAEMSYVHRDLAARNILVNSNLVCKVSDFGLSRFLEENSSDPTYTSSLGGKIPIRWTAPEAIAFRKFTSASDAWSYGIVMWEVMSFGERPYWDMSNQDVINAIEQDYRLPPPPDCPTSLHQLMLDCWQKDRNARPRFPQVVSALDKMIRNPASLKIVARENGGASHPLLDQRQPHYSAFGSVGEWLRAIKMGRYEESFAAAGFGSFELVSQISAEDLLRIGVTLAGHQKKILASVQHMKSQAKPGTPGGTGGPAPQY
Description: as §1

DAPK1 = DAPK1 (Homo sapiens, UniProt P53355); assay: Kinase profiling DAPK1; conditions: for remaining activity at 100 µM: read-out: residual kinase activity, DAPK1
Description: as §1

[1] = 100 micromolar inhibitor concentration, 100 is no change
[2] = 100 micromolar inhibitor, 100 = no change

Chain of DAPK1 (P53355 whole entry, species assumed): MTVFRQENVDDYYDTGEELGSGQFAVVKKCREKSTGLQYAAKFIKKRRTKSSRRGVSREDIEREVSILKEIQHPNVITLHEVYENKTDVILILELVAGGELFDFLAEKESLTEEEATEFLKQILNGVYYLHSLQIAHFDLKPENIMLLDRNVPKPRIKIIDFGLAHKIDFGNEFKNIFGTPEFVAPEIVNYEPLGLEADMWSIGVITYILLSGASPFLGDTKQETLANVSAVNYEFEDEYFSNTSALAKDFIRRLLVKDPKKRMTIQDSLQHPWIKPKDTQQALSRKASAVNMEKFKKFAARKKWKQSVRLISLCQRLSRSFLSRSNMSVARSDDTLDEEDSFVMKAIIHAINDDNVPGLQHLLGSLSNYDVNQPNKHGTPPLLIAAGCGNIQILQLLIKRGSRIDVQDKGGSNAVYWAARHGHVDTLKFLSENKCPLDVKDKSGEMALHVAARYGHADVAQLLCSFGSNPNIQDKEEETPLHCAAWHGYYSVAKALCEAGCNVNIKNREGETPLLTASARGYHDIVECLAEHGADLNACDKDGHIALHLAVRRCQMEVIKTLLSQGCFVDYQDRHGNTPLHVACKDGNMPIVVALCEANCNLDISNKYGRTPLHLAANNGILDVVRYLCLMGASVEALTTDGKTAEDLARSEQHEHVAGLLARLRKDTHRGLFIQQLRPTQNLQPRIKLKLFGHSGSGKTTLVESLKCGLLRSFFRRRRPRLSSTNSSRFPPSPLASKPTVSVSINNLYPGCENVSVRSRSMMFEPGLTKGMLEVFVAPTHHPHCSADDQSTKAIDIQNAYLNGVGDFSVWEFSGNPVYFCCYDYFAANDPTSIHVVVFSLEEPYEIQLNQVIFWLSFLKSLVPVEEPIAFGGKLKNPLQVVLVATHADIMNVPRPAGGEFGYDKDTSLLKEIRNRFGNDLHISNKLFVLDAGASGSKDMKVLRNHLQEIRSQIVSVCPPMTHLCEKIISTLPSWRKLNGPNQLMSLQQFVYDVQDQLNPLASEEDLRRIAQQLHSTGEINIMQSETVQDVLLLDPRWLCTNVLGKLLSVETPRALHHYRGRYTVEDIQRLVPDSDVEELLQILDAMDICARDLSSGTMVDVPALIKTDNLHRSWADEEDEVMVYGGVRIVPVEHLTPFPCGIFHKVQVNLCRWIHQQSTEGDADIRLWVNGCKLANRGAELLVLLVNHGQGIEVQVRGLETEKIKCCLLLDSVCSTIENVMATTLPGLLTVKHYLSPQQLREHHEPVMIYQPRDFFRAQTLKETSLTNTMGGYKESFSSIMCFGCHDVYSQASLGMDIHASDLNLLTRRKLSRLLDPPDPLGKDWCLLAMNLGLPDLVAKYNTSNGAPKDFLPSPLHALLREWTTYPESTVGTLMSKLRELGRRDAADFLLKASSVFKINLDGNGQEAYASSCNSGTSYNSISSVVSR

Compound: CC(=O)Nc1nc2cc(O)ccc2s1 [Compound 01-66, N-(5-hydroxybenzo[d]thiazol-2-yl)acetamide]
- remaining activity at 100 µM (ASK1): 70%
- remaining activity at 100 µM (EPH-B4): 83%
- remaining activity at 100 µM (DAPK1): 44%

Compound: CC(=O)Nc1nc2ccc(O)cc2s1 [Compound 01-71]
- remaining activity at 100 µM (ASK1; [1]): 53%
- remaining activity at 100 µM (EPH-B4; [1]): 98%
- remaining activity at 100 µM (DAPK1; [1]): 21%

Compound: CC(=O)Nc1nc2ccc(C(F)(F)F)cc2s1 [Compound 01-90]
- remaining activity at 100 µM (ASK1; [1]): 35%
- remaining activity at 100 µM (EPH-B4; [1]): 55%
- remaining activity at 100 µM (DAPK1; [1]): 85%

Compound: CC(=O)Nc1nc2ccc(C#N)cc2s1 [Compound 01-94]
- remaining activity at 100 µM (ASK1; [1]): 18%
- remaining activity at 100 µM (EPH-B4; [1]): 62%
- remaining activity at 100 µM (DAPK1; [1]): 41%

Compound: CC(=O)Nc1cccc(NC(=O)c2nc3ccc(O)cc3s2)c1 [Compound 03-07, N-(3-acetamidophenyl)-6-hydroxybenzo[d]thiazole-2-carboxamide]
- remaining activity at 100 µM (ASK1; [2]): 86%
- remaining activity at 100 µM (EPH-B4; [2]): 100%
- remaining activity at 100 µM (DAPK1; [2]): 28%

Compound: O=C(Nc1nc2cc(O)ccc2s1)c1ccncc1 [Compound 03-11]
- residual kinase activity, ASK1 (ASK1; [1]): 79
- residual kinase activity, EPH-B4 (EPH-B4; [1]): 97
- residual kinase activity, DAPK1 (DAPK1; [1]): 62

Compound: O=C(Nc1nc2ccc(O)cc2s1)c1ccccn1 [Compound 03-12]
- residual kinase activity, ASK1 (ASK1; [1]): 70
- residual kinase activity, EPH-B4 (EPH-B4; [1]): 84
- residual kinase activity, DAPK1 (DAPK1; [1]): 25

Compound: O=C(Nc1nc2cc(O)ccc2s1)c1ccccn1 [Compound 03-13]
- residual kinase activity, ASK1 (ASK1; [1]): 88
- residual kinase activity, EPH-B4 (EPH-B4; [1]): 88
- residual kinase activity, DAPK1 (DAPK1; [1]): 58

Compound: COc1ccc2sc(NC(C)=O)nc2c1 [Compound 03-21]
- remaining activity at 100 µM (ASK1; [1]): 97%
- remaining activity at 100 µM (EPH-B4; [1]): 98%
- remaining activity at 100 µM (DAPK1; [1]): 79%

Compound: CC(=O)Nc1nc2ccccc2s1 [Compound 03-32]
- residual kinase activity, ASK1 (ASK1; [1]): 66
- residual kinase activity, EPH-B4 (EPH-B4; [1]): 99
- residual kinase activity, DAPK1 (DAPK1; [1]): 89

Compound: O=C(Nc1nc2cc(O)ccc2s1)c1cccnc1 [Compound 03-33]
- residual kinase activity, ASK1 (ASK1; [1]): 51
- residual kinase activity, EPH-B4 (EPH-B4; [1]): 106
- residual kinase activity, DAPK1 (DAPK1; [1]): 82

Compound: O=C(Nc1nc2ccc(O)cc2s1)c1ccccc1 [Compound 03-60]
- residual kinase activity, ASK1 (ASK1; [1]): 12
- residual kinase activity, EPH-B4 (EPH-B4; [1]): 110
- residual kinase activity, DAPK1 (DAPK1; [1]): 19

Compound: CC(=O)Nc1nc2cc(C(F)(F)F)ccc2s1 [Compound 03-73]
- remaining activity at 100 µM (ASK1; [1]): 83%
- remaining activity at 100 µM (EPH-B4; [1]): 101%
- remaining activity at 100 µM (DAPK1; [1]): 93%

Compound: CC(=O)Nc1nc2cc(C)ccc2s1 [Compound 03-76]
- residual kinase activity, ASK1 (ASK1; [1]): 23
- residual kinase activity, EPH-B4 (EPH-B4; [1]): 109
- residual kinase activity, DAPK1 (DAPK1; [1]): 82

Compound: CC(=O)Nc1nc2cc(F)ccc2s1 [Compound 03-77]
- remaining activity at 100 µM (ASK1; [1]): 54%
- remaining activity at 100 µM (EPH-B4; [1]): 112%
- remaining activity at 100 µM (DAPK1; [1]): 82%

Compound: O=C(Nc1nc2ccc(O)cc2s1)c1ccncc1 [Compound 08-42]
- residual kinase activity, ASK1 (ASK1; [1]): 37
- residual kinase activity, EPH-B4 (EPH-B4; [1]): 92
- residual kinase activity, DAPK1 (DAPK1; [1]): 32

Compound: O=C(Nc1nc2ccc(O)cc2s1)c1cccnc1 [Compound 08-44]
- residual kinase activity, ASK1 (ASK1; [1]): 18
- residual kinase activity, EPH-B4 (EPH-B4; [1]): 100
- residual kinase activity, DAPK1 (DAPK1; [1]): 26
